Experimental data from US7888380B2, “1,2,4-Triazolylaminoaryl (heteroaryl) sulfonamide derivatives” (Janssen Pharmaceutica, N.V., priority 2004, dated 2011).
Like-named read-outs stand apart in the source and are kept apart here.

How the values were obtained:
CDK1:Cyclin-B = molecular target: T1, CDK1:Cyclin-B (Homo sapiens, UniProt P06493); assay: CDK1 Screening Assay (33P-ATP FlashPlate); type: biochemical; details: 10 μM ATP; >10 or >100 = less than 50% inhibition at highest concentration tested
T1 construct: purchased New England Biolabs, Beverly, Mass; 6020; host or cells: insect cells
Description: A kinase reaction mixture was prepared containing 50 mM Tris-HCl pH=8, 10 mM MgCl2, 0.1 mM Na3PO4, 1 mM DTT, 10 μM ATP, 0.025 μM biotinylated histone-H1 peptide substrate and 0.2 μCuries per well ^33P-γ-ATP (2000-3000 Ci/mmol). 70 μL of the kinase reaction mixture was dispensed into each well of a streptavidin coated FlashPlate™ (Cat. # SMP103, NEN, Boston, Mass.). Then 1 μL of test compound stock in 100% DMSO was added to the wells resulting in a final concentration of 1% DMSO in the reaction with a 100 μl final reaction volume.
Next, CDK1:Cyclin-B protein was diluted in 50 mM Tris-HCl pH=8.0, 0.1% BSA at a concentration of 1 ng per μL and 30 μL (30 ng enzyme per test well) was added to each well to initiate the reaction. The reaction was incubated for one hour at 30° C. At the end of the 1 h incubation, the reaction was terminated by aspirating the mixture from the plate and washing the wells twice with PBS containing 100 mM EDTA. The histone-H1 biotinylated peptide substrate became immobilized on the Flashplate™ and the incorporation of ^33P-γ-ATP was measured by reading the plate on a scintillation counter. Inhibition of the enzymatic activity of CDK1 was measured by observing a reduced amount of ^33P-γ-ATP incorporated into the immobilized peptide.
(§1) VEGF-R (vascular endothelial growth factor receptor-2) is a fusion protein containing a polyhistidine tag at the N-terminus followed by amino acids 786-1343 of the rat VEGF-R2 kinase domain (GenBank Accession #U93306). CDK1 (cyclin dependent kinase 1) was isolated from insect cells expressing both the human CDK1 catalytic subunit and its positive regulatory subunit cyclin B (New England Biolabs, Beverly, Mass., Cat. # 6020). CDK2 in complex with cyclin A is commercially available (Upstate Biotech, Lake Placid, N.Y.). The HER2 (human epidermal growth factor receptor-2) construct contains a polyhistidine tag at the N-terminus followed by 24 additional amino acids and begins at amino acid 676 followed by the remainder of the HER2 cytoplasmic domain.

HER2 = molecular target: T2, HER2 (Homo sapiens, UniProt P04626); assay: HER2 Kinase Screening Assay; type: biochemical; details: 10 μM ATP; >10 or >100 = less than 50% inhibition at highest concentration tested
T2 construct: polyhistidine (N)
Description: The HER2 kinase assay was carried out as described above for the VEGF-R kinase assay except that the enzyme was replaced with a human epidermal growth factor receptor-2 (HER2) construct contains a polyhistidine tag at the N-terminus followed by 24 additional amino acids and begins at amino acid 676 (Accession #M11730) followed by the remainder of the HER2 cytoplasmic domain.
as §1

[1] = Standard Rat Pharmacokinetics (PK); type: in vivo; details: for bioavailability: plasma, rat, Dose(IV)*AUC(oral)/Dose(oral)*AUC(IV); for Cmax: rat plasma
Description: The conversion of prodrug to active form was evaluated using a standard rat PK protocol. The following procedure may be followed.
Rats were dosed intravenously (IV) at the level of 1.5-3 mg/kg and by oral gavage (PO) at the level of 10-30 mg/kg with prodrug candidate. For each study, four rats were used for IV dosing and four rats were used for PO dosing. Prodrug was typically formulated for IV dosing as a solution in 10% W/V solutol in 5% dextrose in sterile water vehicle (D5W). Prodrug was typically formulated for oral dosing as a uniform suspension in 0.5% methylcellulose vehicle. Blood samples (0.5 mL) were collected into heparinized tubes post dose via orbital sinus puncture. For IV dosing, blood samples were collected at 5, 15 and 30 mins, 1, 2, 4, 6, 8, and 24 hrs after the dosing. For PO dosing, blood samples were collected at 30 mins, 1, 2, 4, 6, 8 and 24 hrs. Blood samples were centrifuged for cell removal, and precisely 200 μL of plasma supernatant was then transferred to a clean vial, placed on dry ice, and subsequently stored in a −70° C. freezer prior to analysis. Results were calculated by WinNonlin Pro version 3.1. Plasma levels were determined and the oral and intravenous area under the concentration vs. time curve (AUC) were compared to determine the % bioavailability (% F) by the following formula: Dose(IV)*AUC(oral)/Dose (oral)*AUC(IV).

[2] = system: HeLa cervical adenocarcinoma; assay: Inhibition of cell proliferation (14C-thymidine incorporation), HeLa; type: cell-based; details: Homo sapiens
Description: (§2) The ability of a test compound to inhibit the proliferation of cell growth was determined by measuring incorporation of ^14C-labelled thymidine into newly synthesized DNA within the cells. This method was used on cell lines derived from carcinomas originating from several tissues such as HeLa cervical adenocarcinoma (American Type Culture Collection (ATCC), Virginia, Cat. #CCL-2), A375 malignant melanoma (ATCC CRL-1619), and HCT-116 colon carcinoma (CCL-247). In this way the effect of a compound on cell growth of cells with many different phenotypes can be determined. Cells were trypsinized and counted and 3000-8000 cells were added to each well of a 96-well CytoStar tissue culture treated scintillating microplate (Amersham #RPNQ0160) in complete medium in a volume of 100 μl. Cells were incubated for 24 hours in complete medium at 37° C. in an atmosphere containing 5% CO2.
(§3) Next, 1 μl of test compound in 100% DMSO was added to the wells of the plate. DMSO only was added to control wells. Cells were incubated for 24 more hours in complete medium at 37° C. in an atmosphere containing 5% CO2. Methyl ^14C-thymidine 56 mCi/mmol (NEN #NEC568 or Amersham #CFA532) was diluted in complete medium and 0.2 uCi/well was added to each well of the CytoStar plate in a volume of 20 ul. The plate was incubated for 24 hours at 37° C. plus 5% CO2 in drug plus ^14C-thymidine. The contents of the plate were discarded into a ^14C radioactive waste container by inverting the plate and the plate was washed twice with 200 μl PBS.
(§4) 200 μl of PBS was added to each well. The top of the plate was sealed with a transparent plate sealer and a white plate backing sealer (Packard #6005199) was applied to the bottom of the plate. The degree of methyl ^14C-thymidine incorporation was quantified on a Packard Top Count.

A375 malignant melanoma = assay: Inhibition of cell proliferation (14C-thymidine incorporation), A375; type: cell-based, human; details: Homo sapiens, A-375
Description: as §2, §3, §4

[3] = IV 3 mg/kg of prodrug, read-out: Prodrug Cmax (μM) IV
[4] = IV 2 mg/kg of prodrug, read-out: Prodrug Cmax (μM) IV
[5] = PO 10 mg/kg of prodrug, read-out: Prodrug Cmax (μM) PO

T2 sequence (P04626 676-1255 limits assumed): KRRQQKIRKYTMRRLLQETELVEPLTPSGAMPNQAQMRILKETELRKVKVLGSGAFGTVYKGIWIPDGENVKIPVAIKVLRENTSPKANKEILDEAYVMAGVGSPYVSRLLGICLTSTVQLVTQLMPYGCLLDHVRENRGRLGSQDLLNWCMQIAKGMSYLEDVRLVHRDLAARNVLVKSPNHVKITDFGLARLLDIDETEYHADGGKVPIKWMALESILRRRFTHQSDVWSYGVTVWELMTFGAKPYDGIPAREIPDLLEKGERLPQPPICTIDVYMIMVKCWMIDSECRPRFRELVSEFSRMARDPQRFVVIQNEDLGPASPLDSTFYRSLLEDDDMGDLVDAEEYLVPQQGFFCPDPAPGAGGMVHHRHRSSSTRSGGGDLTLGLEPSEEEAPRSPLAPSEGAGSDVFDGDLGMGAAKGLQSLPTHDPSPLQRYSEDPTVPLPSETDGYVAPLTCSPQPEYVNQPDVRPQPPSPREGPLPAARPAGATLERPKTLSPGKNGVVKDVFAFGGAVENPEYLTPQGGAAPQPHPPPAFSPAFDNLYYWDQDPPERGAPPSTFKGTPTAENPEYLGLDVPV
T1 sequence (P06493 whole entry): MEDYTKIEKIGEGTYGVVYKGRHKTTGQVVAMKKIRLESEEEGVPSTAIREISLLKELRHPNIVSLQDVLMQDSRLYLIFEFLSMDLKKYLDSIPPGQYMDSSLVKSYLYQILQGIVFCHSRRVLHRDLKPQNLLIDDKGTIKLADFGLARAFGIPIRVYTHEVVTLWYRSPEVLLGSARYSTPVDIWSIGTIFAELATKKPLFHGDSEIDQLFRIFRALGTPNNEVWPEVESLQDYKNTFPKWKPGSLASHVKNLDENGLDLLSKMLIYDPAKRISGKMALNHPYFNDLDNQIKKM
T1 sequence (P14635 whole entry partner): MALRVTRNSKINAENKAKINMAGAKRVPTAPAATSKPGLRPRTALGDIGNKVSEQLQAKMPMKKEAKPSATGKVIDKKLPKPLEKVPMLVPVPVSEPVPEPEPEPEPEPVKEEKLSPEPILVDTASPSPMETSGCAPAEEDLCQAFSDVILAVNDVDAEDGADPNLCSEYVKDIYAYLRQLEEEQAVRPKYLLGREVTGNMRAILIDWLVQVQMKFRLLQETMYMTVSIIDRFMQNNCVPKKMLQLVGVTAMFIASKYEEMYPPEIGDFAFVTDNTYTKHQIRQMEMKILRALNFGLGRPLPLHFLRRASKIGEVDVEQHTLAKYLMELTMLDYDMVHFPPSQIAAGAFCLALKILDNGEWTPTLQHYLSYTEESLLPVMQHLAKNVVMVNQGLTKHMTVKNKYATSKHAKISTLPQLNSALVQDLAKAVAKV

IC50 (CDK1:Cyclin-B) [µM]	IC50 (HER2) [µM]	bioavailability ([1]; IV/PO 3/30 mg/kg) [%]	Cmax [1, 3] [µM]	IC50 [2] [µM]	IC50 (A375 malignant melanoma) [µM]	bioavailability ([1]; IV/PO 2/10 mg/kg) [%]	Cmax [1, 4] [µM]	Cmax [1, 5] [µM]	Cmax ([1]; PO 30 mg/kg of prodrug, read-out: Prodrug Cmax (μM) PO) [µM]	bioavailability ([1]; IV/PO 1.5/15 mg/kg) [%]	Cmax ([1]; IV 1.5 mg/kg of prodrug, read-out: Prodrug Cmax (μM) IV) [µM]	SMILES
0.98	20	–	–	58.3	> 100	0	18.3	0.1	–	–	–	Nc1nc(Nc2ccc(S(=O)(=O)NC(=O)[C@@H](N)CC(=O)O)cc2)nn1C(=O)c1c(F)cccc1F [Compound 17, (S)-3-amino-4-{4-[5-amino-1-(2,6-difluoro-benzoyl)-1H-[1,2,4]triazol-3-ylamino]-benzenesulfonylamino}-4-oxo-butyric acid]
1.36	≥ 10	–	–	1.04	12.1	0	31.8	0.167	–	–	–	C[C@H](N)C(=O)N[C@@H](C)C(=O)NS(=O)(=O)c1ccc(Nc2nc(N)n(C(=O)c3c(F)cccc3F)n2)cc1.O=C(O)C(F)(F)F.O=C(O)C(F)(F)F.O=C(O)C(F)(F)F [Compound 15, (S)-2-amino-N—((S)-2-{4-[5-amino-1-(2,6-difluoro-benzoyl)-1H-[1,2,4]triazol-3-ylamino]-benzenesulfonylamino}-1-methyl-2-oxo-ethyl)-propionamide 3 TFA salt]
1.41	≥ 10	–	–	4.02	> 10	0	8.15	–	–	–	–	Nc1nc(Nc2ccc(S(=O)(=O)NC(=O)[C@@H](N)CO)cc2)nn1C(=O)c1c(F)cccc1F [Compound 13, 4-[5-amino-1-(2,6-difluoro-benzoyl)-1H-[1,2,4]triazol-3-ylamino]-N—((S)-2-amino-3-hydroxy-propionyl)-benzenesulfonamide]
0.74	≥ 10	–	–	1.96	71.1	1	11	0.08	–	–	–	C[C@@H](N)C(=O)NS(=O)(=O)c1ccc(Nc2nc(N)n(C(=O)c3c(F)cccc3F)n2)cc1 [Compound 14, 4-[5-amino-1-(2,6-difluoro-benzoyl)-1H-[1,2,4]triazol-3-ylamino]-N—((R)-2-amino-propionyl)-benzenesulfonamide]

Second part, the compound before the results:

SMILES	IC50 (CDK1:Cyclin-B) [µM]	IC50 (HER2) [µM]	bioavailability ([1]; IV/PO 3/30 mg/kg) [%]	Cmax [1, 3] [µM]	IC50 [2] [µM]	IC50 (A375 malignant melanoma) [µM]	bioavailability ([1]; IV/PO 2/10 mg/kg) [%]	Cmax [1, 4] [µM]	Cmax [1, 5] [µM]	Cmax ([1]; PO 30 mg/kg of prodrug, read-out: Prodrug Cmax (μM) PO) [µM]	bioavailability ([1]; IV/PO 1.5/15 mg/kg) [%]	Cmax ([1]; IV 1.5 mg/kg of prodrug, read-out: Prodrug Cmax (μM) IV) [µM]
Nc1nc(Nc2ccc(S(=O)(=O)NC(=O)Cn3cnnn3)cc2)nn1C(=O)c1c(F)cccc1F [Compound 4, 4-[5-amino-1-(2,6-difluoro-benzoyl)-1H-[1,2,4]triazol-3-ylamino]-N-(2-tetrazol-1-yl-acetyl)-benzenesulfonamide]	5.39	≥ 10	0	23.5	> 100	> 100	–	–	–	–	–	–
Nc1nc(Nc2ccc(S(=O)(=O)NC(=O)CCCC(=O)O)cc2)nn1C(=O)c1c(F)cccc1F [Compound 11, 5-{4-[5-amino-1-(2,6-difluoro-benzoyl)-1H-[1,2,4]triazol-3-ylamino]-benzenesulfonylamino}-5-oxo-pentanoic acid]	12.4	> 100	–	–	> 100	> 100	0	81.8	0.346	–	–	–
COCCOCC(=O)NS(=O)(=O)c1ccc(Nc2nc(N)n(C(=O)c3c(F)cccc3F)n2)cc1 [Compound 3, 4-[5-amino-1-(2,6-difluoro-benzoyl)-1H-[1,2,4]triazol-3-ylamino]-N-[2-(2-methoxy-ethoxy)-acetyl]-benzenesulfonamide]	1.66	≥ 10	2	42.9	> 10	> 100	–	–	–	0.32	–	–
NCC(=O)NS(=O)(=O)c1ccc(Nc2nc(N)n(C(=O)c3c(F)cccc3F)n2)cc1 [Compound 2, N-(2-amino-acetyl)-4-[5-amino-1-(2,6-difluoro-benzoyl)-1H-[1,2,4]triazol-3-ylamino]-benzenesulfonamide]	1.07	≥ 10	–	–	14.9	9.45	–	–	–	–	0	11.8
